Assay type in all cases: biochemical
One assay has as its target T1, HDAC 4 (Homo sapiens, UniProt P56524).
T1 construct: gene HDAC4
The experiment in a line: recombinant enzyme fluorogenic assay, Boc-Lys-(Tfa)-AMC substrate. As to conditions: recombinant hdac 4; read-out: YAK540 / IC50 (pIC50 ±SEM) (converted).

The target in another assay is T2, HDAC 2 (Homo sapiens, UniProt Q92769).
T2 construct: gene HDAC2
The experiment in a line: recombinant enzyme fluorogenic assay, Boc-Lys(Ac)-AMC substrate. To be noted: recombinant hdac 2; read-out: YAK540 / IC50 (pIC50 ±SEM) (converted).

A further assay concerns the target T3, HDAC 8 (Homo sapiens, UniProt Q9BY41).
T3 construct: gene HDAC8
T3 sequence (Q9BY41 1-377): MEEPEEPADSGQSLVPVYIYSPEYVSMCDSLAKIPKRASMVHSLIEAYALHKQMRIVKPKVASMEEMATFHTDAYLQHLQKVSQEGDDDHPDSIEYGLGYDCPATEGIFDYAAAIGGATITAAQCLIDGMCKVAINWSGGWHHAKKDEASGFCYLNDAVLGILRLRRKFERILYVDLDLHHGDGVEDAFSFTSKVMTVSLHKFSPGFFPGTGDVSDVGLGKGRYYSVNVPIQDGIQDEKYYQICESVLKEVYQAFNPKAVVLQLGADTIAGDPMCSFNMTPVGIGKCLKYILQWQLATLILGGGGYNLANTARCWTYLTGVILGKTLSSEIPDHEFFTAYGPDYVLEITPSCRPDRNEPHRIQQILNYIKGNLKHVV
The experiment in a line: recombinant enzyme fluorogenic assay, Boc-Lys-(Tfa)-AMC substrate. As to conditions: recombinant hdac 8; read-out: YAK540 / IC50 (pIC50 ±SEM) (converted).

The next assay deals with T4, HDAC 6 (Homo sapiens, UniProt Q9UBN7).
T4 construct: gene HDAC6
T4 sequence (Q9UBN7 1-1215): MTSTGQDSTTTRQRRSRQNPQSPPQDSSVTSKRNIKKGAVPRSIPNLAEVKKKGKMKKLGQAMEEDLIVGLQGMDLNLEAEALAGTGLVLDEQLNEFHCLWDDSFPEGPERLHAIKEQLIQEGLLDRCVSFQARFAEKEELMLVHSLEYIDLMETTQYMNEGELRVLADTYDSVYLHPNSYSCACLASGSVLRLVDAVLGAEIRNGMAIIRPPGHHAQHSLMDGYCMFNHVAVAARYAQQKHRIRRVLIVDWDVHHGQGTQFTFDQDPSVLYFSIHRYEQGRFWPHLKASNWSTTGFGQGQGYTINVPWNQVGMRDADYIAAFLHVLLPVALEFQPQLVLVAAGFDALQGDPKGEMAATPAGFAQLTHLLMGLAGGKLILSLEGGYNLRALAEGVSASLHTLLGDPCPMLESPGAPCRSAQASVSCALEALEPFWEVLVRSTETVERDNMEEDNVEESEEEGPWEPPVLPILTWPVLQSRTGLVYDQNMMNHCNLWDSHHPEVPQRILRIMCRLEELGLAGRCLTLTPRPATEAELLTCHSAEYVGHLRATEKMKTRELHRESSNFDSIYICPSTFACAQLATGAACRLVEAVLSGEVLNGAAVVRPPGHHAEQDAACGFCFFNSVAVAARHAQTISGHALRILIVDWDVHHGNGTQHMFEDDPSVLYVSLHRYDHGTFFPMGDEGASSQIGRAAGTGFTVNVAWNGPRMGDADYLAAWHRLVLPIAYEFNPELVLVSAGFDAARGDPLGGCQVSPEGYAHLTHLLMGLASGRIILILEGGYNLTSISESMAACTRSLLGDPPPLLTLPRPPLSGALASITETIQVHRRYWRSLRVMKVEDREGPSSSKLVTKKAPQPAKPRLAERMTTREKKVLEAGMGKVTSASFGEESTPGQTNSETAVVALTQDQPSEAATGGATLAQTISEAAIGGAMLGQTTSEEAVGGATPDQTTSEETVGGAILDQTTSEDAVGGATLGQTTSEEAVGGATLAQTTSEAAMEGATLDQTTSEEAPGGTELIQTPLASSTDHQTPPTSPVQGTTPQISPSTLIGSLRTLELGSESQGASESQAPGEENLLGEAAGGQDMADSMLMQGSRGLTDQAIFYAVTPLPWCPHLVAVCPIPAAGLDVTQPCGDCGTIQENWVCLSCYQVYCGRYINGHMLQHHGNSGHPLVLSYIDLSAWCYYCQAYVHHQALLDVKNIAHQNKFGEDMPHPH
Put plainly: recombinant enzyme fluorogenic assay, Boc-Lys(Ac)-AMC substrate. To be noted: recombinant hdac 6; read-out: YAK540 / IC50 (pIC50 ±SEM) (converted).

T1 sequence (P56524 whole entry): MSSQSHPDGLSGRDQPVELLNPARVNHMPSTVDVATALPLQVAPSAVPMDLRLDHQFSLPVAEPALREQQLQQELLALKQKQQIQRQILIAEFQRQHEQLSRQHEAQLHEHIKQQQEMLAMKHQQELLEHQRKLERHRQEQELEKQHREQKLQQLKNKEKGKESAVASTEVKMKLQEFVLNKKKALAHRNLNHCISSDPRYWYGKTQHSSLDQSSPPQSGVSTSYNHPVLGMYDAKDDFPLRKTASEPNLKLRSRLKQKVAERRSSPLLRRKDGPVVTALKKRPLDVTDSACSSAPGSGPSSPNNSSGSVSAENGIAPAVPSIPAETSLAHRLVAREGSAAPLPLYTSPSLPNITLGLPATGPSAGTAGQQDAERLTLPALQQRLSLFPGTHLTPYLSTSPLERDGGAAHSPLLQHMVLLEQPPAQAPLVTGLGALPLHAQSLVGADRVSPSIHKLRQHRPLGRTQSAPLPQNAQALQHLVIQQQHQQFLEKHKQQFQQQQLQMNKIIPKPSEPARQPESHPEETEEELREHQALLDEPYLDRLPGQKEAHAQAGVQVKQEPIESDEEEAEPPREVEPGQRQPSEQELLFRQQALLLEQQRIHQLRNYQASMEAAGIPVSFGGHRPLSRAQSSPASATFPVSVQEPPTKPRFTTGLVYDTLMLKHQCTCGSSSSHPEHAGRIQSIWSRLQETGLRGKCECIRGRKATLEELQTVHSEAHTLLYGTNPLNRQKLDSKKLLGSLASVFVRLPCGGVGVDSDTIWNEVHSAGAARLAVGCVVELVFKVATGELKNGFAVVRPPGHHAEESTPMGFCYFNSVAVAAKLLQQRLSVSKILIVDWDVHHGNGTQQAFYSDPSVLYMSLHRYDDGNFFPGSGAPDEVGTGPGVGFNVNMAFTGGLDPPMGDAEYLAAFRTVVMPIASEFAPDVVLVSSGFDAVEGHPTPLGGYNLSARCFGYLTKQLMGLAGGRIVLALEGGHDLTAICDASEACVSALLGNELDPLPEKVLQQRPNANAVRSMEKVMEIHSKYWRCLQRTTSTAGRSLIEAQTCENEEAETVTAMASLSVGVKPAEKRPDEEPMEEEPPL
T2 sequence (Q92769 whole entry): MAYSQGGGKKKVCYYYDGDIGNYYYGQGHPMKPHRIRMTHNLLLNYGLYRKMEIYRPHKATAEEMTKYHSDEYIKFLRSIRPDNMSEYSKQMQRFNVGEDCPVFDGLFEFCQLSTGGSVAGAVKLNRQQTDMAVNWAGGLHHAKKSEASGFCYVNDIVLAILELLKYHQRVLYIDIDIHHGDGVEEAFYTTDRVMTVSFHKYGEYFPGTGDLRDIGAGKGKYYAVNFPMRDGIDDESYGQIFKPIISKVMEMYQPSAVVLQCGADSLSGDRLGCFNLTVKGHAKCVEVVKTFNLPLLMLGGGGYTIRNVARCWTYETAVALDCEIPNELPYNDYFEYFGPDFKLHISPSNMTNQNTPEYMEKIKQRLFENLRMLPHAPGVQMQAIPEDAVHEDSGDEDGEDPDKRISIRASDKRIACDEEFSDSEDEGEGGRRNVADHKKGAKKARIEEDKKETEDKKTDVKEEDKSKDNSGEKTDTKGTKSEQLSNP

Turning to `O=C(NOCCN1CCCCC1)c1ccc(-c2noc(C(F)(F)F)n2)cc1` [YAK540], the IC50 at HDAC 4 was 0.114 µM; at HDAC 2 it was 30.2 µM; on HDAC 8, 9.39 µM; on HDAC 6, 11.4 µM.
